Measured values: PubChem BioAssay (NCI)
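The compound was tested at five concentrations on cells cultured in 96-well plates, with a 48-hour exposure period. TGI marks complete inhibition of growth.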

Key:
Assay in all cases: NCI tumour cell line growth inhibition, 48 h
786-0 renal = test system: 786-0 renal
A549 NSCLC = test system: A549 NSCLC
ACHN renal = test system: ACHN renal
BT-549 breast = test system: BT-549 breast
CAKI-1 renal = test system: CAKI-1 renal
CCRF-CEM leukemia = test system: CCRF-CEM leukemia
COLO 205 colon = test system: COLO 205 colon
DU-145 prostate = test system: DU-145 prostate
EKVX NSCLC = test system: EKVX NSCLC
HCC-2998 colon = test system: HCC-2998 colon
HCT-116 colon = test system: HCT-116 colon
HCT-15 colon = test system: HCT-15 colon
HL-60(TB) leukemia = test system: HL-60(TB) leukemia
HOP-62 NSCLC = test system: HOP-62 NSCLC
HOP-92 NSCLC = test system: HOP-92 NSCLC
HS 578T breast = test system: HS 578T breast
HT29 colon = test system: HT29 colon
IGROV1 ovarian = test system: IGROV1 ovarian
K-562 leukemia = test system: K-562 leukemia
KM12 colon = test system: KM12 colon
LOX IMVI melanoma = test system: LOX IMVI melanoma
M14 melanoma = test system: M14 melanoma
MALME-3M melanoma = test system: MALME-3M melanoma
MCF7 breast = test system: MCF7 breast
MDA-MB-231 breast = test system: MDA-MB-231 breast
MDA-MB-435 = test system: MDA-MB-435
MDA-N = test system: MDA-N
MOLT-4 leukemia = test system: MOLT-4 leukemia
NCI-H226 lung = test system: NCI-H226 lung
NCI-H23 lung = test system: NCI-H23 lung
NCI-H460 lung = test system: NCI-H460 lung
NCI-H522 lung = test system: NCI-H522 lung
NCI/ADR-RES ovarian = test system: NCI/ADR-RES ovarian
OVCAR-3 ovarian = test system: OVCAR-3 ovarian
OVCAR-4 ovarian = test system: OVCAR-4 ovarian
OVCAR-5 ovarian = test system: OVCAR-5 ovarian
OVCAR-8 ovarian = test system: OVCAR-8 ovarian
PC-3 prostate = test system: PC-3 prostate
RPMI-8226 leukemia = test system: RPMI-8226 leukemia
RXF 393 renal = test system: RXF 393 renal
SF-268 CNS = test system: SF-268 CNS
SF-539 CNS = test system: SF-539 CNS
SK-MEL-2 melanoma = test system: SK-MEL-2 melanoma
SK-MEL-28 melanoma = test system: SK-MEL-28 melanoma
SK-MEL-5 melanoma = test system: SK-MEL-5 melanoma
SK-OV-3 ovarian = test system: SK-OV-3 ovarian
SN12C renal = test system: SN12C renal
SNB-19 CNS = test system: SNB-19 CNS
SNB-75 CNS = test system: SNB-75 CNS
SR leukemia = test system: SR leukemia
SW-620 colon = test system: SW-620 colon
T-47D breast = test system: T-47D breast
TK-10 renal = test system: TK-10 renal
U251 CNS = test system: U251 CNS
UACC-257 melanoma = test system: UACC-257 melanoma
UACC-62 melanoma = test system: UACC-62 melanoma
UO-31 renal = test system: UO-31 renal
A498 renal = test system: A498 renal
SF-295 CNS = test system: SF-295 CNS

Measured: TGI

O=c1cnn(C2OC(C(O)CO)C(O)C2O)c(=O)[nH]1 (centres undefined)
> 100 µM: 786-0 renal | A549 NSCLC | ACHN renal | BT-549 breast | CAKI-1 renal | CCRF-CEM leukemia | COLO 205 colon | DU-145 prostate | EKVX NSCLC | HCC-2998 colon | HCT-116 colon | HCT-15 colon | HL-60(TB) leukemia | HOP-62 NSCLC | HOP-92 NSCLC | HS 578T breast | HT29 colon | IGROV1 ovarian | K-562 leukemia | KM12 colon | LOX IMVI melanoma | M14 melanoma | MALME-3M melanoma | MCF7 breast | MDA-MB-231 breast | MDA-MB-435 | MDA-N | MOLT-4 leukemia | NCI-H226 lung | NCI-H23 lung | NCI-H460 lung | NCI-H522 lung | NCI/ADR-RES ovarian | OVCAR-3 ovarian | OVCAR-4 ovarian | OVCAR-5 ovarian | OVCAR-8 ovarian | PC-3 prostate | RPMI-8226 leukemia | RXF 393 renal | SF-268 CNS | SF-539 CNS | SK-MEL-2 melanoma | SK-MEL-28 melanoma | SK-MEL-5 melanoma | SK-OV-3 ovarian | SN12C renal | SNB-19 CNS | SNB-75 CNS | SR leukemia | SW-620 colon | T-47D breast | TK-10 renal | U251 CNS | UACC-257 melanoma | UACC-62 melanoma | UO-31 renal

CNC(C#N)c1ccc(OC)cc1 (centres undefined)
> 100 µM: 786-0 renal | A498 renal | A549 NSCLC | ACHN renal | BT-549 breast | CAKI-1 renal | CCRF-CEM leukemia | COLO 205 colon | DU-145 prostate | EKVX NSCLC | HCC-2998 colon | HCT-116 colon | HCT-15 colon | HL-60(TB) leukemia | HOP-92 NSCLC | HS 578T breast | HT29 colon | IGROV1 ovarian | K-562 leukemia | KM12 colon | LOX IMVI melanoma | M14 melanoma | MALME-3M melanoma | MCF7 breast | MDA-MB-231 breast | MDA-MB-435 | MDA-N | MOLT-4 leukemia | NCI-H226 lung | NCI-H23 lung | NCI-H460 lung | NCI-H522 lung | NCI/ADR-RES ovarian | OVCAR-3 ovarian | OVCAR-4 ovarian | OVCAR-5 ovarian | OVCAR-8 ovarian | PC-3 prostate | RXF 393 renal | SF-268 CNS | SF-295 CNS | SF-539 CNS | SK-MEL-2 melanoma | SK-MEL-28 melanoma | SK-MEL-5 melanoma | SK-OV-3 ovarian | SN12C renal | SNB-19 CNS | SW-620 colon | T-47D breast | TK-10 renal | U251 CNS | UACC-257 melanoma | UACC-62 melanoma | UO-31 renal

CCCCS(=O)CCC(N)P(=O)(O)O (centres undefined)
> 100 µM: 786-0 renal | A549 NSCLC | ACHN renal | BT-549 breast | CAKI-1 renal | CCRF-CEM leukemia | COLO 205 colon | DU-145 prostate | EKVX NSCLC | HCT-116 colon | HCT-15 colon | HL-60(TB) leukemia | HOP-62 NSCLC | HOP-92 NSCLC | HS 578T breast | HT29 colon | IGROV1 ovarian | K-562 leukemia | KM12 colon | LOX IMVI melanoma | M14 melanoma | MALME-3M melanoma | MCF7 breast | MDA-MB-435 | MDA-N | MOLT-4 leukemia | NCI-H226 lung | NCI-H23 lung | NCI-H460 lung | NCI-H522 lung | NCI/ADR-RES ovarian | OVCAR-3 ovarian | OVCAR-4 ovarian | OVCAR-5 ovarian | OVCAR-8 ovarian | PC-3 prostate | RPMI-8226 leukemia | SF-268 CNS | SF-295 CNS | SK-MEL-2 melanoma | SK-MEL-28 melanoma | SK-MEL-5 melanoma | SK-OV-3 ovarian | SN12C renal | SNB-19 CNS | SNB-75 CNS | SR leukemia | SW-620 colon | T-47D breast | TK-10 renal | U251 CNS | UACC-257 melanoma | UACC-62 melanoma | UO-31 renal

N=C1/C(=C/c2ccc(F)cc2)C(=O)N=C2SC=NN12
> 100 µM: 786-0 renal | A549 NSCLC | ACHN renal | BT-549 breast | CAKI-1 renal | CCRF-CEM leukemia | COLO 205 colon | DU-145 prostate | EKVX NSCLC | HCC-2998 colon | HCT-116 colon | HCT-15 colon | HL-60(TB) leukemia | HOP-62 NSCLC | HOP-92 NSCLC | HS 578T breast | HT29 colon | IGROV1 ovarian | K-562 leukemia | KM12 colon | LOX IMVI melanoma | M14 melanoma | MALME-3M melanoma | MCF7 breast | MDA-MB-231 breast | MDA-MB-435 | MDA-N | MOLT-4 leukemia | NCI-H226 lung | NCI-H23 lung | NCI-H460 lung | NCI-H522 lung | NCI/ADR-RES ovarian | OVCAR-3 ovarian | OVCAR-4 ovarian | OVCAR-5 ovarian | OVCAR-8 ovarian | PC-3 prostate | RPMI-8226 leukemia | RXF 393 renal | SF-268 CNS | SF-295 CNS | SF-539 CNS | SK-MEL-2 melanoma | SK-MEL-28 melanoma | SK-MEL-5 melanoma | SK-OV-3 ovarian | SN12C renal | SNB-19 CNS | SNB-75 CNS | SR leukemia | SW-620 colon | T-47D breast | TK-10 renal | U251 CNS | UACC-257 melanoma | UACC-62 melanoma | UO-31 renal
